Test results: US20070219141A1, “Plant Materials Extraction Method” (priority 2003, published 2007)

Tests used:
Type in all cases: cell-based
[1] = tested on: all the bacteria and fungus used in above biological screening; assay: Disk diffusion assay, whole panel; settings: seven bacteria and C. albicans
Text: (§1) Microorganisms: Laboratory strains of bacteria and fungus were obtained from Dr. Neil Towers' and Dr. Jovel's lab, The University of British Columbia. Seven species of bacteria and one species of fungus will be used in the screening process. The bacteria strains consisted of Staphylococcus aureus, methicillin resistant Staphylococcus aureus, Bacillus subtilis and Enterococcus faecalis, Escherichia coli, Pseudomonas aeruginosa, and Salmonella typhimurium. The fungal species was Candida albicans.
(§2) Methods: Disk diffusion assay on agar plates inoculated with the organisms being studies. The plates were divided into quadrants or sixths using a black marking pen. In quadrant 1 and 2, negative and positive controls were run (no treatment and gentamicin). Test compounds were run on the remaining available portions.

Pseudomonas aeruginosa = assay: Disk diffusion assay on agar plates; set-up: key: “+” active; “—” not active
Text: as §1, §2

Salmonella typhimurium = assay: Disk diffusion assay on agar plates; set-up: key: “+” active; “—” not active
Text: as §1, §2

Candida albicans = assay: Disk diffusion assay on agar plates; set-up: key: “+” active; “—” not active
Text: as §1, §2

Enterococcus faecalis = assay: Disk diffusion assay on agar plates; set-up: key: “+” active; “—” not active
Text: as §1, §2

Compound	anti-microbial activity over the panel, in words [1]	Anti-microbial activity P. a (Pseudomonas aeruginosa)	Anti-microbial activity S. t. (Salmonella typhimurium)	Anti-microbial activity C. a (Candida albicans)	Anti-microbial activity E. f. (Enterococcus faecalis)
CC1(C)C=CC=C(C(=O)O)C=C1 [Thujic acid standard, thujic acid]	showed activities against some bacteria and fungus	—	+		
Gentamicin	active against all the tested bacteria but not against C. albicans			—	+
CC(C)c1cccc(=O)c(O)c1 [Hinokitiol standard, 2,4,6-Cycloheptatrien-1-one,2-hydroxy-4-(1-methylethyl)]	demonstrated activities against all the bacteria and fungus	+			
